How the values were obtained:
Type in all cases: in vivo
[1] = system: Small Brown Planthopper (Laodelphax striatellus); assay: Control of small brown planthopper on paddyfield rice by nursery box application, number of parasitic insects; details: single agent
Description: (§1) Test for the Control of Small Brown Planthopper (Laodelphax striatellus) and Rice Leafroller (Cnaphalocrosis medinalis) on Paddyfield Rice Plant by Nursery Box Application
(§2) Fifty grams of a granular preparation was applied to rice plant (variety: Nihombare) cultured in a nursery box, after which the rice plant was transplanted to the main paddy field (in the middle of May). The controlling effect against small brown planthopper was evaluated by investigating the number of parasitic insects on 30 hills per each plot, 40 days and 60 days after the transplantation. The controlling effect against rice leafroller was evaluated by investigating the number of injured leaves on 100 hills per each plot, 50 days after the transplantation.

[2] = system: Rice Leafroller (Cnaphalocrosis medinalis); assay: Control of rice leafroller on paddyfield rice by nursery box application, number of injured leaves; details: single agent
Description: as §1, §2

[3] = system: Green Peach Aphid (Myzus persicae); assay: Insecticidal test on green peach aphid, spraying of Chinese cabbage, control value; details: Myzus persicae, 144 h; 0.1 ppm, single agent, 6 days after spraying; read-out: Control degree (%)
[4] = system: Diamondback Moth (Plutella xyloxtella); assay: Control of diamondback moth on cabbage by soil treatment, number of parasitic insects; details: 20 mg ai/hill, 21 days after transplanting
Description: (§3) Test for the Control of Diamondback Moth (Plutella xyloxtella) and Aphid on Cabbage by Soil Treatment
A granular preparation was mixed into bed soil, and the mixture was filled into a cell seedling box and sown with seeds of cabbage (variety: YR Seitoku). Otherwise, cell seedling planted cabbage was treated with the granular agent either by a treatment in the foliage leaf extraction period, or by a pre-transplanting treatment, or by a pricking-in hole treatment, or by a plant foot treatment after the planting. Twenty one days after the transplanting (in the middle of June), the number of parasitic insects was counted on 30 hills in the case of diamondback moth and on 10 hills in the case of aphid.

Aphid = assay: Control of aphid on cabbage by soil treatment, number of parasitic insects; details: 20 mg ai/hill, 21 days after transplanting
Description: as §3
A granular preparation was mixed into bed soil, and the mixture was filled into a cell seedling box and sown with seeds of cabbage (variety: YR Seitoku). Otherwise, cell seedling planted cabbage was treated with the granular agent either by a treatment in the foliage leaf extraction period, or by a pre-transplanting treatment, or by a pricking-in hole treatment, or by a plant foot treatment after the planting. […]

[5] = system: Brown Rice Planthopper (Nilaparvata lugens); assay: Insecticidal test on brown rice planthopper, rice seedling dipping; details: 0.1 ppm, single agent
Description: Insecticidal Test on Brown Rice Planthopper (Nilaparvata lugens)
Rice seedlings (variety: Nihombare) were dipped in a solution of an agent diluted to a predetermined concentration for 30 seconds. After air-dryness, each seedling was introduced into a glass-made test tube having a diameter of 1.8 cm and a height of 20 cm, and inoculated with ten 3rd inster nimphs of brown rice planthopper. Then, the test tube was stoppered with cotton. One day after and four days after the treatment, the number of alive insects was counted, based on which the insect death rate was calculated.

SMILES	Number of parasitic planthoppers per 30 hills After 40 days ([1]; 2.5 g ai/Box)	Number of parasitic planthoppers per 30 hills After 60 days ([1]; 2.5 g ai/Box)	Percentage of injured leaves (%) After 50 days ([2]; 2.5 g ai/Box) [%]	pest or weed control at 0.1 ppm [3] [%]	Number of parasitic insects per 30 hills, Diamondback moth ([4]; picking-in hole treatment)	Number of parasitic insects per 30 hills, Diamondback moth ([4]; plant foot treatment)	Number of parasitic insects per 30 hills, Diamondback moth ([4]; pre-transplanting treatment)	Number of parasitic insects per 30 hills, Aphid (Aphid; picking-in hole treatment)	Number of parasitic insects per 30 hills, Aphid (Aphid; plant foot treatment)	Number of parasitic insects per 30 hills, Aphid (Aphid; pre-transplanting treatment)	Death rate (%) After 1 days ([5]; after 1 day) [%]	Death rate (%) After 5 days ([5]; after 5 days) [%]	Number of parasitic planthoppers per 30 hills After 40 days ([1]; 1 g ai/Box)	Number of parasitic planthoppers per 30 hills After 60 days ([1]; 1 g ai/Box)	Percentage of injured leaves (%) After 50 days ([2]; 1 g ai/Box) [%]
CCOC(=O)CCN(SN(C)C(=O)Oc1cccc2c1OC(C)(C)C2)C(C)C [benfuracarb]	78	244	1.13	–	–	–	–	–	–	–	–	–	–	–	–
O=[N+]([O-])NC1=NCCN1Cc1ccc(Cl)nc1 [imidacloprid]	–	–	–	69	40	38	35	16	13	10	35	35	0	29	1.63
